What is called fold induction is the signal under treatment as a multiple of the control signal. Low readings indicate a weak induction, high ones a strong induction.

SMILES strings stand for the structures.

Consider 26 compounds from patent US8785462B2, “5-hydroxypyrimidine-4-carboxamide derivative” (Daiichi Sankyo Company, Limited, priority 2009, dated 2014).

The subject of the assay is human liver cancer-derived cell line Hep3B. Description: In vitro erythropoietin (EPO) induction activity in Hep3B cells (human EPO ELISA of culture supernatant). To be noted: test compound 12.5 μM, Hep3B cells cultured 24 hours at 37° C., multiple of the EPO concentration in the control (0.5% DMSO = 1). Format: cell-based. How it is done: In vitro erythropoietin (EPO) induction activity of test compounds was evaluated using human liver cancer-derived cell line Hep3B (ATCC, Manassas, Va.). Hep3B cells were cultured overnight at 37° C. in Dulbecco's modified Eagle's medium (DMEM) in the presence of 10% fetal bovine serum (FBS) (24-well plate, 1.0×10^5 cells/well). After replacing with fresh DMEM (+10% FBS) containing a test compound dissolved in 0.5% dimethyl sulfoxide (DMSO) (prepared to a concentration of 12.5 μM) or a solvent control (0.5% DMSO), the cells were cultured for 24 hours at 37° C. After recovering the culture supernatant, EPO concentration in the culture supernatant was quantified using a human EPO ELISA kit (StemCell Technologies).
The EPO concentration in the case of using a compound of each example as a test compound was expressed as a multiple of the EPO concentration in the control.
In general terms: ELISA stands for enzyme-linked immunosorbent assay.
`Cc1nc(CC2CCN(c3ccc(-c4ccc(CO)cc4)cc3)CC2)nc(C(=O)NCC(=O)O)c1O` [Example 1, ({[5-Hydroxy-2-{(1-[4′-(hydroxymethyl)biphenyl-4-yl]piperidin-4-yl}methyl)-6-methylpyrimidin-4-yl]carbonyl}amino)acetic acid] registered a fold induction at 12.5 µM of 55.

In the case of `Cc1nc(CC2CCN(c3ccc(-c4ccc(C(C)O)cc4)cc3)CC2)nc(C(=O)NCC(=O)O)c1O` (centres unmarked) [Example 3, ({[5-Hydroxy-2-{(1-[4′-(1-hydroxyethyl)biphenyl-4-yl]piperidin-4-yl}methyl)-6-methylpyrimidin-4-yl]carbonyl}amino)acetic acid], the fold induction at 12.5 µM was 24. In the case of `Cc1nc(CC2CCN(c3ccc(-c4ccc(CCO)cc4)cc3)CC2)nc(C(=O)NCC(=O)O)c1O` [Example 4, ({[5-Hydroxy-2-({1-[4′-(2-hydroxyethyl)biphenyl-4-yl]piperidin-4-yl}methyl)-6-methylpyrimidin-4-yl]carbonyl}amino)acetic acid] it was 73.

The compound `Cc1nc(CC2CCN(c3ccc(-c4ccc(CC(C)O)cc4)cc3)CC2)nc(C(=O)NCC(=O)O)c1O` (centres unmarked) [Example 5, ({[5-Hydroxy-2-{(1-[4′-(2-hydroxypropyl)biphenyl-4-yl]piperidin-4-yl}methyl)-6-methylpyrimidin-4-yl]carbonyl}amino)acetic acid] gave a fold induction at 12.5 µM of 48. In the case of `Cc1nc(CC2CCN(c3ccc(-c4ccc(C(C)(C)CO)cc4)cc3)CC2)nc(C(=O)NCC(=O)O)c1O` [Example 6, ({[5-Hydroxy-2-{(1-[4′-(2-hydroxy-1,1-dimethylethyl)biphenyl-4-yl]piperidin-4-yl}methyl)-6-methylpyrimidin-4-yl]carbonyl}amino)acetic acid] it was 36. To `Cc1nc(CC2CCN(c3ccc(-c4ccc(C(=O)N(C)C)cc4)cc3)CC2)nc(C(=O)NCC(=O)O)c1O` [Example 7, ({[2-{(1-[4′-(Dimethylcarbamoyl)biphenyl-4-yl]piperidin-4-yl}methyl)-5-hydroxy-6-methylpyrimidin-4-yl]carbonyl}amino)acetic acid] belongs 50. `CNC(=O)c1ccc(-c2ccc(N3CCC(Cc4nc(C)c(O)c(C(=O)NCC(=O)O)n4)CC3)cc2)cc1` [Example 8, ({[5-Hydroxy-6-methyl-2-{(1-[4′-(methylcarbamoyl)biphenyl-4-yl]piperidin-4-yl}methyl)pyrimidin-4-yl]carbonyl}amino)acetic acid] returned a fold induction at 12.5 µM of 94. In the case of `Cc1nc(CC2CCN(c3ccc(-c4ccc(CC(=O)N(C)C)cc4)cc3)CC2)nc(C(=O)NCC(=O)O)c1O` [Example 9, [({2-[(1-{4′-[2-(Dimethylamino)-2-oxoethyl]biphenyl-4-yl}piperidin-4-yl)methyl]-5-hydroxy-6-methylpyrimidin-4-yl}carbonyl)amino]acetic acid] it was 36. To `CCOC(=O)c1ccc(-c2ccc(N3CCC(Cc4nc(C)c(O)c(C(=O)NCC(=O)O)n4)CC3)cc2)nc1` [Example 16, [({2-[(1-{4-[5-(Ethoxycarbonyl)pyridin-2-yl]phenyl}piperidin-4-yl)methyl]-5-hydroxy-6-methylpyrimidin-4-yl}carbonyl)amino]acetic acid] belongs 47. In the case of `Cc1nc(CC2CCN(c3ccc(-c4ccc(CC(C)O)cc4)cn3)CC2)nc(C(=O)NCC(=O)O)c1O` (centres unmarked) [Example 20, [({5-Hydroxy-2-[(1-{5-[4-(2-hydroxypropyl)phenyl]pyridin-2-yl}piperidin-4-yl)methyl]-6-methylpyrimidin-4-yl}carbonyl)amino]acetic acid] it was 11. The compound `Cc1nc(CC2CCN(c3ccc(-c4ccc(CO)c(Cl)c4)cc3)CC2)nc(C(=O)NCC(=O)O)c1O` [Example 24, ({[2-{(1-[3′-Chloro-4′-(hydroxymethyl)biphenyl-4-yl]piperidin-4-yl}methyl)-5-hydroxy-6-methylpyrimidin-4-yl]carbonyl}amino)acetic acid] yielded a fold induction at 12.5 µM of 30. In the case of `Cc1cc(CO)ccc1-c1ccc(N2CCC(Cc3nc(C)c(O)c(C(=O)NCC(=O)O)n3)CC2)cc1` [Example 25, ({[5-Hydroxy-2-{(1-[4′-(hydroxymethyl)-2′-methylbiphenyl-4-yl]piperidin-4-yl}methyl)-6-methylpyrimidin-4-yl]carbonyl}amino)acetic acid] it was 22; in that of `Cc1cc(-c2ccc(N3CCC(Cc4nc(C)c(O)c(C(=O)NCC(=O)O)n4)CC3)cc2C)ccc1CO` [Example 26, ({[5-Hydroxy-2-({1-[4′-(hydroxymethyl)-2,3′-dimethylbiphenyl-4-yl]piperidin-4-yl}methyl)-6-methylpyrimidin-4-yl]carbonyl}amino)acetic acid], 13. In the case of `CCC(O)Cc1ccc(-c2ccc(N3CCC(Cc4nc(C)c(O)c(C(=O)NCC(=O)O)n4)CC3)cc2)cc1` (centres unmarked) [Example 27, ({[5-Hydroxy-2-{(1-[4′-(2-hydroxybutyl)biphenyl-4-yl]piperidin-4-yl}methyl)-6-methylpyrimidin-4-yl]carbonyl}amino)acetic acid] it was 30; in that of `Cc1nc(CC2CCN(c3ccc(-c4ccc(C(F)(F)CO)cc4)cc3)CC2)nc(C(=O)NCC(=O)O)c1O` [Example 30, ({[2-{(1-[4′-(1,1-Difluoro-2-hydroxyethyl)biphenyl-4-yl]piperidin-4-yl}methyl)-5-hydroxy-6-methylpyrimidin-4-yl]carbonyl}amino)acetic acid], 23. To `COCc1ccc(-c2ccc(N3CCC(Cc4nc(C)c(O)c(C(=O)NCC(=O)O)n4)CC3)cc2)cc1` [Example 35, ({[5-Hydroxy-2-{(1-[4′-(methoxymethyl)biphenyl-4-yl]piperidin-4-yl}methyl)-6-methylpyrimidin-4-yl]carbonyl}amino)acetic acid] belongs 53. Compound `Cc1nc(CC2CCN(c3ccc(-c4ccc(CO)cc4F)cc3)CC2)nc(C(=O)NCC(=O)O)c1O` [Example 36, ({[2-{(1-[2′-Fluoro-4′-(hydroxymethyl)biphenyl-4-yl]piperidin-4-yl}methyl)-5-hydroxy-6-methylpyrimidin-4-yl]carbonyl}amino)acetic acid] came in with a fold induction at 12.5 µM of 25.

As to `Cc1nc(CC2CCN(c3ccc(-c4ccc(CO)c(F)c4)cc3)CC2)nc(C(=O)NCC(=O)O)c1O` [Example 37, ({[2-({1-[3′-Fluoro-4′-(hydroxymethyl)biphenyl-4-yl]piperidin-4-yl}methyl)-5-hydroxy-6-methylpyrimidin-4-yl]carbonyl}amino)acetic acid], the fold induction at 12.5 µM was determined as 31. Consider `Cc1nc(CC2CCN(c3ccc(-c4ccc(CO)cc4)c(F)c3)CC2)nc(C(=O)NCC(=O)O)c1O` [Example 38, ({[2-({1-[2-Fluoro-4′-(hydroxymethyl)biphenyl-4-yl]piperidin-4-yl}methyl)-5-hydroxy-6-methylpyrimidin-4-yl]carbonyl}amino)acetic acid], for which the fold induction at 12.5 µM is 24. The compound `Cc1nc(CC2CCN(c3ccc(-c4ccc(CO)cc4)cc3F)CC2)nc(C(=O)NCC(=O)O)c1O` [Example 39, ({[2-{(1-[3-Fluoro-4′-(hydroxymethyl)biphenyl-4-yl]piperidin-4-yl}methyl)-5-hydroxy-6-methylpyrimidin-4-yl]carbonyl}amino)acetic acid] gave a fold induction at 12.5 µM of 18. To `Cc1cc(-c2ccc(N3CCC(Cc4nc(C)c(O)c(C(=O)NCC(=O)O)n4)CC3)cc2)ccc1CO` [Example 40, ({[5-Hydroxy-2-({1-[4′-(hydroxymethyl)-3′-methylbiphenyl-4-yl]piperidin-4-yl}methyl)-6-methylpyrimidin-4-yl]carbonyl}amino)acetic acid] belongs 25. In the case of `Cc1nc(CC2CCN(c3ccc(-c4cc(F)c(CO)c(F)c4)cc3)CC2)nc(C(=O)NCC(=O)O)c1O` [Example 41, ({[2-({1-[3′,5′-Difluoro-4′-(hydroxymethyl)biphenyl-4-yl]piperidin-4-yl}methyl)-5-hydroxy-6-methylpyrimidin-4-yl]carbonyl}amino)acetic acid] it was 20; in that of `Cc1nc(CC2CCN(c3ccc(-c4cc(Cl)c(CO)c(Cl)c4)cc3)CC2)nc(C(=O)NCC(=O)O)c1O` [Example 42, ({[2-{(1-[3′,5′-Dichloro-4′-(hydroxymethyl)biphenyl-4-yl]piperidin-4-yl}methyl)-5-hydroxy-6-methylpyrimidin-4-yl]carbonyl}amino)acetic acid], 28. In the case of `[2H]C([2H])(O)c1ccc(-c2ccc(N3CCC(Cc4nc(C)c(O)c(C(=O)NCC(=O)O)n4)CC3)cc2)cc1` [Example 44, ({[5-Hydroxy-2-{(1-[4′-(hydroxymethyl)biphenyl-4-yl]piperidin-4-yl}methyl)-6-methylpyrimidin-4-yl]carbonyl}amino)acetic acid-d2] it was 26; in that of `Cc1nc(CC2CCN(c3ccc(-c4ccc(C[C@H](C)O)cc4)cc3)CC2)nc(C(=O)NCC(=O)O)c1O` [Example 45, [({5-Hydroxy-2-[(1-{4′-[(2S)-2-hydroxypropyl]biphenyl-4-yl}piperidin-4-yl)methyl]-6-methylpyrimidin-4-yl}carbonyl)amino]acetic acid], 41; in that of `Cc1nc(CC2CCN(c3ccc(-c4ccc(C[C@@H](C)O)cc4)cc3)CC2)nc(C(=O)NCC(=O)O)c1O` [Example 46, [({5-Hydroxy-2-[(1-{4′-[(2R)-2-hydroxypropyl]biphenyl-4-yl}piperidin-4-yl)methyl]-6-methylpyrimidin-4-yl}carbonyl)amino]acetic acid], 45.
